Data on 14 compounds can be found in PubChem BioAssay (NCI).

As a reminder, the GI50 is the concentration at which growth is held to half of that of the control. A word on the TGI: it is the concentration at which net growth stops. A low value points to more potent growth arrest.

The structures appear in SMILES notation.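 Cultured in 96-well plates, cells were exposed to test compound for 48 hours across five concentrations. The concentration for 50% growth inhibition is given as GI50. The concentration for full growth arrest is given as TGI.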

Test systems include CAKI-1 renal; PC-3 prostate; SN12C renal; A549 NSCLC; T-47D breast; COLO 205 colon; LOX IMVI melanoma; NCI-H23 lung; SR leukemia; NCI/ADR-RES ovarian.
Experiment in all cases: DTP human tumour cell line panel, 48 h

Consider `COC(=O)c1c[nH]c2cc(OC(C)C)c(OC(C)C)cc2c1=O`, for which the GI50 in the test on CAKI-1 renal, with PC-3 prostate, with SN12C renal, in the test with A549 NSCLC, in the test on T-47D breast and in the test with COLO 205 colon was over 100 µM in each case. The GI50 in the test on LOX IMVI melanoma, with NCI-H23 lung, with SR leukemia and in the test on NCI/ADR-RES ovarian was over 100 µM in each case. In addition, the TGI in the test on CAKI-1 renal, in the test with PC-3 prostate, with SN12C renal, in the test with A549 NSCLC, in the test with T-47D breast and in the test with COLO 205 colon was over 100 µM in each case. Also, the TGI in the test with LOX IMVI melanoma, in the test with NCI-H23 lung, with SR leukemia and in the test on NCI/ADR-RES ovarian was over 100 µM in each case.

For the compound `Cc1ccc(N(C=O)c2c([N+](=O)[O-])cc([N+](=O)[O-])c3c2=[N+]([O-])CN=3)cc1`, the TGI in the test on CAKI-1 renal is over 100 µM; in the test with PC-3 prostate, 47.3 µM; in the test on SN12C renal it was over 100 µM; in the test on A549 NSCLC, over 100 µM; in the test with T-47D breast, 39.7 µM; in the test with COLO 205 colon it was 68.1 µM. Moreover, the TGI in the test with LOX IMVI melanoma was 90.3 µM; in the test with NCI-H23 lung, 68.1 µM; in the test with SR leukemia, over 100 µM; in the test with NCI/ADR-RES ovarian, 92.2 µM.

As to `O=C(Nc1nc(-c2ccc(Cl)cc2)cs1)c1cc(O)c(O)c(O)c1`, the GI50 was 115 µM in the test with CAKI-1 renal; 172 µM in the test on SN12C renal; 276 µM with A549 NSCLC; 125 µM in the test with T-47D breast; 584 µM in the test on COLO 205 colon; 174 µM in the test on LOX IMVI melanoma. In addition, the GI50 is 292 µM with NCI-H23 lung, 96.3 µM in the test with SR leukemia and 183 µM in the test on NCI/ADR-RES ovarian. The TGI was 660 µM with CAKI-1 renal; 3780 µM with SN12C renal; over 5000 µM in the test on A549 NSCLC; 671 µM in the test with T-47D breast; 1810 µM with COLO 205 colon; 810 µM in the test on LOX IMVI melanoma. Also, the TGI in the test with NCI-H23 lung is 3030 µM; in the test on SR leukemia, 1060 µM; in the test on NCI/ADR-RES ovarian it was over 5000 µM.

`COc1cccc2c1C(=O)c1c(O)c3c(c(O)c1C2=O)C[C@@](O)(/C(CO)=N/NC(=O)CCCCCN1C(=O)C=CC1=O)C[C@@H]3O[C@H]1C[C@H](N)[C@H](O)[C@H](C)O1`: the GI50 was 3.6 µM in the test on CAKI-1 renal; 1.64 µM with PC-3 prostate; 0.446 µM with SN12C renal; 0.49 µM with T-47D breast; 0.8 µM with COLO 205 colon; 0.301 µM in the test with LOX IMVI melanoma. The GI50 in the test with NCI-H23 lung was 0.927 µM; in the test with SR leukemia, 0.109 µM; in the test with NCI/ADR-RES ovarian, over 100 µM. Moreover, the TGI in the test with CAKI-1 renal is 56.4 µM; in the test with PC-3 prostate, 19.5 µM; in the test on SN12C renal, over 100 µM; in the test on T-47D breast, 8.41 µM; with COLO 205 colon, 10.2 µM; in the test on LOX IMVI melanoma it was 3.95 µM. Also, the TGI with NCI-H23 lung was 5.98 µM; with SR leukemia, over 100 µM; in the test on NCI/ADR-RES ovarian, over 100 µM.

Consider `Cn1ncc(C#N)c1-c1ccc2c(c1)CN([C@H](CN)Cc1cccc(F)c1)C2=O`, for which the GI50 with PC-3 prostate is 0.393 µM; with SN12C renal, 19.7 µM; in the test on A549 NSCLC, 5.34 µM; in the test with T-47D breast it was 0.0519 µM; in the test on COLO 205 colon, 1.85 µM; in the test on LOX IMVI melanoma, 20.3 µM. In addition, the GI50 with NCI-H23 lung is 20 µM; in the test with SR leukemia it was 17.2 µM; in the test on NCI/ADR-RES ovarian, over 100 µM. In addition, the TGI is over 70.5 µM with PC-3 prostate; over 100 µM with SN12C renal; over 100 µM with A549 NSCLC; 6.74 µM with T-47D breast; 21 µM in the test with COLO 205 colon; over 100 µM with LOX IMVI melanoma. The results for the TGI in the test on NCI-H23 lung, in the test on SR leukemia and with NCI/ADR-RES ovarian were over 100 µM, 50.7 µM and over 100 µM, respectively.

`CC(=Nc1ccc(N(C)C)cc1)c1ccccc1`: the TGI in the test on CAKI-1 renal stood at 34 µM; in the test with PC-3 prostate it was 99.4 µM; with SN12C renal it was 32.1 µM; with A549 NSCLC it was 81.9 µM; in the test on T-47D breast it was 55.4 µM; in the test on COLO 205 colon, 34.9 µM. In addition, the TGI with NCI-H23 lung was over 100 µM; with SR leukemia it was 49.9 µM; with NCI/ADR-RES ovarian, 68.4 µM.

Consider `O/N=C(\CC(O)(C(F)(F)F)C(F)(F)F)c1cccs1`, for which the TGI in the test with CAKI-1 renal, in the test on PC-3 prostate, with SN12C renal, in the test on A549 NSCLC, with T-47D breast and with COLO 205 colon was over 10 µM each time. Moreover, the TGI in the test with LOX IMVI melanoma, with NCI-H23 lung and in the test on NCI/ADR-RES ovarian was over 10 µM each time.

Turning to `CCN(CC)CCNC(=O)c1cccc2c1-c1ccccc1C2=O`, the GI50 in the test on CAKI-1 renal, in the test on PC-3 prostate, in the test on SN12C renal, in the test on A549 NSCLC, in the test on T-47D breast and in the test with COLO 205 colon was over 100 µM throughout. Moreover, the GI50 in the test on LOX IMVI melanoma, in the test with NCI-H23 lung and in the test on NCI/ADR-RES ovarian was over 100 µM throughout. Further, the TGI in the test with CAKI-1 renal, in the test on PC-3 prostate, in the test on SN12C renal, with A549 NSCLC, in the test on T-47D breast and with COLO 205 colon was over 100 µM in each case. For the same compound, the TGI with LOX IMVI melanoma, in the test with NCI-H23 lung and in the test on NCI/ADR-RES ovarian was over 100 µM in each case.

Consider `COc1cc(-c2nn(-c3ccc(NC(=O)Nc4cc(C(F)(F)F)cc(C(F)(F)F)c4)cc3)cc2-c2ccncc2)ccc1Cl`, for which the GI50 in the test with CAKI-1 renal was 1.97 µM; in the test with PC-3 prostate, 1.2 µM; in the test with SN12C renal, 1.71 µM; in the test on A549 NSCLC it was 2.47 µM; in the test with T-47D breast, 1.96 µM; in the test on COLO 205 colon it was 1.6 µM. Also, the figures for the GI50 in the test with NCI-H23 lung and with NCI/ADR-RES ovarian were 2.01 µM and 2 µM, respectively. For the same compound, the TGI in the test on CAKI-1 renal was found to be 6.73 µM; in the test on PC-3 prostate, 10.8 µM; in the test on SN12C renal it was 4.21 µM; in the test with A549 NSCLC, 13 µM; in the test on T-47D breast, 7.77 µM; in the test with COLO 205 colon it was 3.32 µM. For the same compound, the values for the TGI in the test on NCI-H23 lung and in the test on NCI/ADR-RES ovarian were 5.56 µM and 7.38 µM, respectively.

Take `C=C1C(=O)O[C@H]2[C@H]1CC/C(COC(=O)c1cccnc1N)=C\CC[C@@]1(C)O[C@@H]21`: the GI50 in the test with PC-3 prostate is 3.72 µM; in the test with SN12C renal, 2.01 µM; with A549 NSCLC it was 3.77 µM; with T-47D breast it was 1.85 µM; in the test with COLO 205 colon, 1.77 µM; with LOX IMVI melanoma it was 3.18 µM. The GI50 in the test on NCI-H23 lung is 5.56 µM; with SR leukemia, 0.539 µM; in the test with NCI/ADR-RES ovarian, 4.56 µM. For the same compound, the TGI in the test on PC-3 prostate turned out to be 19.2 µM; in the test with SN12C renal, 10.9 µM; in the test on A549 NSCLC, 16.5 µM; with T-47D breast, 8.01 µM; with COLO 205 colon it was 3.68 µM; in the test with LOX IMVI melanoma, 14 µM. Besides, the TGI came to 24.5 µM in the test with NCI-H23 lung, 10.4 µM with SR leukemia and 39.9 µM in the test with NCI/ADR-RES ovarian.

As for `Brc1ccccc2cc(-c3ccccc3)nc1-2`, the TGI was 44.7 µM in the test with CAKI-1 renal; over 64.8 µM in the test on PC-3 prostate; 19.4 µM in the test with SN12C renal; 53 µM in the test with A549 NSCLC; over 100 µM in the test with T-47D breast; 15.8 µM in the test on COLO 205 colon. Further, the TGI with LOX IMVI melanoma was determined as 21.4 µM; in the test on NCI-H23 lung it was 21.2 µM; in the test with NCI/ADR-RES ovarian it was 44.6 µM. In addition, the GI50 in the test on T-47D breast was 15.7 µM.

With `O=S1(=O)c2ccccc2N(c2ccccc2)c2nnnn21`, the TGI in the test on CAKI-1 renal is 36.9 µM; with PC-3 prostate, over 100 µM; in the test with SN12C renal, 39.1 µM; in the test on A549 NSCLC it was over 100 µM; in the test with T-47D breast, over 100 µM; with COLO 205 colon, 48.5 µM. Further, the results for the TGI in the test with LOX IMVI melanoma, in the test with NCI-H23 lung and with NCI/ADR-RES ovarian were 32.6 µM, 59.6 µM and over 100 µM, respectively.

Turning to `O=C(Nc1ccncc1)C(=O)c1cn(S(=O)(=O)c2cccc(Cl)c2)c2ccccc12`, the GI50 in the test with CAKI-1 renal was 3.38 µM; in the test with PC-3 prostate, 11.8 µM; in the test on SN12C renal, 13 µM; with A549 NSCLC, 22.4 µM; in the test on T-47D breast it was 9.08 µM; in the test with COLO 205 colon, 24.8 µM. The figures for the GI50 with LOX IMVI melanoma, in the test with NCI-H23 lung and in the test on NCI/ADR-RES ovarian were 4.72 µM, 4.65 µM and 2.86 µM, respectively. Further, the TGI in the test on CAKI-1 renal was 39.9 µM; in the test on PC-3 prostate it was over 100 µM; in the test on SN12C renal it was over 100 µM; in the test with A549 NSCLC it was over 100 µM; in the test on T-47D breast it was over 100 µM; in the test on COLO 205 colon it was 70.3 µM. The TGI in the test with LOX IMVI melanoma, in the test on NCI-H23 lung and with NCI/ADR-RES ovarian was over 100 µM in each case.

For the compound `COc1cc2c(cc1OC)C(C(CCCCCC(CCC(C)C)C1NCCc3cc(OC)c(OC)cc31)CCC(C)C)NCC2` (centres undefined), the GI50 in the test on CAKI-1 renal is 1.55 µM; in the test on PC-3 prostate, 1.58 µM; in the test on SN12C renal, 1.44 µM; in the test on A549 NSCLC it was 0.98 µM; in the test on T-47D breast it was 1.44 µM; in the test on COLO 205 colon it was 0.225 µM. For the same compound, the concentration for 50% growth inhibition (GI50) in the test on LOX IMVI melanoma is 0.194 µM; in the test with NCI-H23 lung it was 1.66 µM; in the test on NCI/ADR-RES ovarian, 1.44 µM. Besides, the TGI in the test on CAKI-1 renal amounted to 3.19 µM; in the test on PC-3 prostate, 3.12 µM; in the test on SN12C renal, 2.87 µM; in the test on A549 NSCLC, 2.44 µM; in the test on T-47D breast, 3.06 µM; in the test with COLO 205 colon it was 0.464 µM. Besides, the TGI in the test on LOX IMVI melanoma was 0.408 µM; in the test on NCI-H23 lung it was 3.18 µM; in the test with NCI/ADR-RES ovarian, 2.94 µM.
